Laboratory results taken from patent publication US20100063008A1, “GELATINOUS ELASTOMER COMPOSITIONS” (Silipos, Inc., priority 2008, published 2010).

Assays:
[1] = Exudation of active agents from gel specimens to filter paper discs, quantified by UV, MS, GC and/or HPLC after extraction; type: physicochemical; conditions: for Active Agent Transferred from Gel to Filters: 37° C., 0.40 psi; for Total Active Agent Exuded from Gel: cumulative
Protocol: Sample filter paper discs were placed in contact with gel specimens of same diameter under constant low pressure (0.40 psi. (2.8 Mpa)) at 37° C. Multiple time-controlled exposures of the filter paper to the gel were preformed in succession to same side of gel. Quantification of active agent transferred to the filter paper discs was determined by UV, MS, GC and or HPLC analysis after extraction of active agent from the filter paper. Exudation rates was expressed as μg/unit time per unit surface area.
This compound was then divided into three aliquots' of approximately 10 grams each and poured into a 2.625″ diameter aluminum petri dish and allowed to cool to create individual gel samle discs. Subsequently, absorbent cellulose filter blotter paper was die cut to enough 2.625″ diameter discs to be employed as a wicking media for repeated exposure in direct contact with the gel compound under specific conditions as follows.
(§1) Exposure Conditions: 37-40 deg. C., Sample filter paper discs in contact with gel specimens of same diameter were stacked in […]. aluminum petri dishes, gel specimen diameter 2.625″×0.125″ thick, filter paper disc diameter 2.625″ with another petri dish and a 1 kg dead weight on top of stack. Pressure calculated at ˜0.407 psi. (2.8 Mpa) constant. Two replicates per test condition. Repeat exposures at 3 hours then repeat three exposures of 18 hours each, changing discs but keeping same gel specimen and same side of each gel specimen in contact with each successive filter paper disc sample.
The filter paper disc specimens aa through kk were then sent to an analytical laboratory for HPLC and GC analysis along with a small sample of each individual raw ingredient so that the HPLC and GC equipment could be calibrated for the protocol being employed by the lab. This calibration allowed for determining the maximum recoverable (measurable) amount of each ingredient that could be measured using these techniques and would later be used to correct the data. The analytical laboratory then detected and measured the amount of each of the added active agents that was flushed out of the filter paper discs using wet chemistry techniques known to those skilled in the art.
The analytical data was interpreted, and the amounts of each ingredient which was exuded into each filter paper blotter disc specimen, and subsequently extracted using wet chemistry, were then entered into a data analysis spreadsheet and adjusted based on the Analytical Recovery Rate to determine actual concentration of each ingredient extracted.

[2] = Total weight of exudate (oil) absorbed by filter paper blotter discs and theoretical amount of each ingredient exuded; type: physicochemical
Protocol: as §1
Data was calculated to determine the total weight of exudate absorbed by each individual sample filter paper blotter disc test specimen. Calculations were then performed based upon the ratios of ingredients in the gel disc formula to determine the theoretical amount of each ingredient that could have been exuded from the oil if the oil contained the same ratio of ingredients as contained in the control oil sample and in the gel.

[3] = Gel Specimen Number 1, 1 h filter exposure, time 0-1 h
[4] = Gel Specimen Number 1, 3 h filter exposure, time 1-4 h
[5] = Gel Specimen Number 1, 18 h filter exposure, time 4-22 h
[6] = Gel Specimen Number 1, 18 h filter exposure, time 22-40 h
[7] = Gel Specimen Number 1, 18 h filter exposure, time 40-58 h
[8] = Gel Specimen Number 1, Time 1 h
[9] = Gel Specimen Number 1, Time 4 h
[10] = Gel Specimen Number 1, Time 22 h
[11] = Gel Specimen Number 1, Time 40 h
[12] = Gel Specimen Number 1, Time 58 h
[13] = Gel Specimen Number 2, 1 h filter exposure, time 0-1 h
[14] = Gel Specimen Number 2, 3 h filter exposure, time 1-4 h
[15] = Gel Specimen Number 2, 18 h filter exposure, time 4-22 h
[16] = Gel Specimen Number 2, 18 h filter exposure, time 22-40 h
[17] = Gel Specimen Number 2, 18 h filter exposure, time 40-58 h
[18] = Gel Specimen Number 2, Time 1 h
[19] = Gel Specimen Number 2, Time 4 h
[20] = Gel Specimen Number 2, Time 22 h
[21] = Gel Specimen Number 2, Time 40 h
[22] = Gel Specimen Number 2, Time 58 h
[23] = Specimen aa, Hours 1, Cummulative Hours 1
[24] = Specimen bb, Hours 1, Cummulative Hours 1
[25] = Specimen cc, Hours 3, Cummulative Hours 4
[26] = Specimen dd, Hours 3, Cummulative Hours 4
[27] = Specimen ee, Hours 18, Cummulative Hours 22
[28] = Specimen ff, Hours 18, Cummulative Hours 22
[29] = Specimen gg, Hours 18, Cummulative Hours 40
[30] = Specimen hh, Hours 18, Cummulative Hours 40
[31] = Specimen ii, Hours 18, Cummulative Hours 58
[32] = Specimen kk, Hours 18, Cummulative Hours 58
[33] = Sample aa, Test Disc 1, Exposed 1 hours
[34] = Sample bb, Test Disc 1 Replicate, Exposed 1 hours
[35] = Sample cc, Test Disc 2, Exposed 3 hours
[36] = Sample dd, Test Disc 2 Replicate, Exposed 3 hours
[37] = Sample ee, Test Disc 3, Exposed 18 hours
[38] = Sample ff, Test Disc 3 Replicate, Exposed 18 hours
[39] = Sample gg, Test Disc 4, Exposed 18 hours
[40] = Sample hh, Test Disc 4 Replicate, Exposed 18 hours
[41] = Sample ii, Test Disc 5, Exposed 18 hours
[42] = Sample kk, Test Disc 5 Replicate, Exposed 18 hours

Compound | Active Agent Transferred from Gel to Filters [1, 3] [μg per filter] | Active Agent Transferred from Gel to Filters [1, 4] [μg per filter] | Active Agent Transferred from Gel to Filters [1, 5] [μg per filter] | Active Agent Transferred from Gel to Filters [1, 6] [μg per filter] | Active Agent Transferred from Gel to Filters [1, 7] [μg per filter] | Total Active Agent Exuded from Gel [1, 8] [µg] | Total Active Agent Exuded from Gel [1, 9] [µg] | Total Active Agent Exuded from Gel [1, 10] [µg] | Total Active Agent Exuded from Gel [1, 11] [µg] | Total Active Agent Exuded from Gel [1, 12] [µg] | Active Agent Transferred from Gel to Filters [1, 13] [μg per filter] | Active Agent Transferred from Gel to Filters [1, 14] [μg per filter] | Active Agent Transferred from Gel to Filters [1, 15] [μg per filter] | Active Agent Transferred from Gel to Filters [1, 16] [μg per filter] | Active Agent Transferred from Gel to Filters [1, 17] [μg per filter] | Total Active Agent Exuded from Gel [1, 18] [µg] | Total Active Agent Exuded from Gel [1, 19] [µg] | Total Active Agent Exuded from Gel [1, 20] [µg] | Total Active Agent Exuded from Gel [1, 21] [µg] | Total Active Agent Exuded from Gel [1, 22] [µg] | further results
Synthetic Menthol [S-Menthol] | 3578 | 4193 | 8952 | 8566 | 7193 | 3578 | 7771 | 16723 | 25289 | 32482 | 4855 | 5373 | 8916 | 7446 | 7108 | 4855 | 10229 | 19145 | 26590 | 33699 | Quantitative Analysis - Islechem u-gram extraction [1, 23]: 2970 u-gram; Quantitative Analysis - Islechem u-gram extraction [1, 24]: 4030 u-gram; Quantitative Analysis - Islechem u-gram extraction [1, 25]: 3480 u-gram; Quantitative Analysis - Islechem u-gram extraction [1, 26]: 4460 u-gram; Quantitative Analysis - Islechem u-gram extraction [1, 27]: 7430 u-gram; Quantitative Analysis - Islechem u-gram extraction [1, 28]: 7400 u-gram; Quantitative Analysis - Islechem u-gram extraction [1, 29]: 7110 u-gram; Quantitative Analysis - Islechem u-gram extraction [1, 30]: 6180 u-gram; Quantitative Analysis - Islechem u-gram extraction [1, 31]: 5970 u-gram; Quantitative Analysis - Islechem u-gram extraction [1, 32]: 5900 u-gram; Estimated grams of ingredient exuded (theoretical amount from ratios of ingredients in the gel disc formula) [2, 33]: 0.0022 grams; Estimated grams of ingredient exuded (theoretical amount from ratios of ingredients in the gel disc formula) [2, 34]: 0.0031 grams; Estimated grams of ingredient exuded (theoretical amount from ratios of ingredients in the gel disc formula) [2, 35]: 0.0024 grams; Estimated grams of ingredient exuded (theoretical amount from ratios of ingredients in the gel disc formula) [2, 36]: 0.0035 grams; Estimated grams of ingredient exuded (theoretical amount from ratios of ingredients in the gel disc formula) [2, 37]: 0.0062 grams; Estimated grams of ingredient exuded (theoretical amount from ratios of ingredients in the gel disc formula) [2, 38]: 0.0062 grams; Estimated grams of ingredient exuded (theoretical amount from ratios of ingredients in the gel disc formula) [2, 39]: 0.0064 grams; Estimated grams of ingredient exuded (theoretical amount from ratios of ingredients in the gel disc formula) [2, 40]: 0.0057 grams; Estimated grams of ingredient exuded (theoretical amount from ratios of ingredients in the gel disc formula) [2, 41]: 0.0051 grams; Estimated grams of ingredient exuded (theoretical amount from ratios of ingredients in the gel disc formula) [2, 42]: 0.0051 grams
CCCCCCCCCCCCCCCC(=O)OC/C=C(C)/C=C/C=C(C)/C=C/C1=C(C)CCCC1(C)C [Vit. A Palmitate, reference compound] | 841 | 977 | 1955 | 1682 | 916 | 841 | 1818 | 3773 | 5455 | 6370 | 1159 | 1284 | 1864 | 1307 | 1523 | 1159 | 2443 | 4307 | 5614 | 7136 | Quantitative Analysis - Islechem u-gram extraction [1, 23]: 740 u-gram; Quantitative Analysis - Islechem u-gram extraction [1, 24]: 1020 u-gram; Quantitative Analysis - Islechem u-gram extraction [1, 25]: 860 u-gram; Quantitative Analysis - Islechem u-gram extraction [1, 26]: 1130 u-gram; Quantitative Analysis - Islechem u-gram extraction [1, 27]: 1720 u-gram; Quantitative Analysis - Islechem u-gram extraction [1, 28]: 1640 u-gram; Quantitative Analysis - Islechem u-gram extraction [1, 29]: 1480 u-gram; Quantitative Analysis - Islechem u-gram extraction [1, 30]: 1150 u-gram; Quantitative Analysis - Islechem u-gram extraction [1, 31]: 806 u-gram; Quantitative Analysis - Islechem u-gram extraction [1, 32]: 1340 u-gram; Estimated grams of ingredient exuded (theoretical amount from ratios of ingredients in the gel disc formula) [2, 33]: 0.0022 grams; Estimated grams of ingredient exuded (theoretical amount from ratios of ingredients in the gel disc formula) [2, 34]: 0.0031 grams; Estimated grams of ingredient exuded (theoretical amount from ratios of ingredients in the gel disc formula) [2, 35]: 0.0024 grams; Estimated grams of ingredient exuded (theoretical amount from ratios of ingredients in the gel disc formula) [2, 36]: 0.0035 grams; Estimated grams of ingredient exuded (theoretical amount from ratios of ingredients in the gel disc formula) [2, 37]: 0.0062 grams; Estimated grams of ingredient exuded (theoretical amount from ratios of ingredients in the gel disc formula) [2, 38]: 0.0062 grams; Estimated grams of ingredient exuded (theoretical amount from ratios of ingredients in the gel disc formula) [2, 39]: 0.0064 grams; Estimated grams of ingredient exuded (theoretical amount from ratios of ingredients in the gel disc formula) [2, 40]: 0.0057 grams; Estimated grams of ingredient exuded (theoretical amount from ratios of ingredients in the gel disc formula) [2, 41]: 0.0051 grams; Estimated grams of ingredient exuded (theoretical amount from ratios of ingredients in the gel disc formula) [2, 42]: 0.0051 grams
